Experimental data as given in patent US10000473B2, “Indazole derivatives useful as glucagon receptor antagonists” (Janssen Pharmaceutica NV, priority 2016, dated 2018).

What follows are compounds tested against T1, human GCGR (Homo sapiens, UniProt P47871) (assay: Cellular functional assay, cAMP readout (glucagon-stimulated cAMP, LANCE TR-FRET)). Details: HEK293 cells stably expressing full-length human GCGR; glucagon 100 pM; IC50 converted to Ki; read-out: Inhibition of cAMP Ki.
T1 construct: expressed in transfected cells; host or cells: HEK293 (hGluc-1HEK), pcDNA3.1, G418 selection
T1 sequence (P47871 26-477): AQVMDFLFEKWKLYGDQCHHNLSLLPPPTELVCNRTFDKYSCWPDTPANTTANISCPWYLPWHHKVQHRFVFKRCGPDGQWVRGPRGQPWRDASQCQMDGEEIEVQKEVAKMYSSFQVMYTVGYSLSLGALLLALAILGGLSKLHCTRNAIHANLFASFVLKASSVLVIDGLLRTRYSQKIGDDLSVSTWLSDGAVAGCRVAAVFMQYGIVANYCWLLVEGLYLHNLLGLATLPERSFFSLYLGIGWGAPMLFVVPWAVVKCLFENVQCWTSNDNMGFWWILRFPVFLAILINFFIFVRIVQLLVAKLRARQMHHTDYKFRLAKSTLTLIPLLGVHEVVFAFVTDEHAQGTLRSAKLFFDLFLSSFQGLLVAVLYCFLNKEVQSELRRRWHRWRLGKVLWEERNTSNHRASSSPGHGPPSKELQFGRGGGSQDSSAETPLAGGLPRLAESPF
Type: cell-based
Experimental: IC50 Values in Cellular Functional Assays: cAMP Readout
Full-length human GCGR (Accession Number: NM000160) subcloned into pcDNA3.1 was stably transfected into HEK293 cells (hGluc-1HEK) and maintained under G418 selection (500 μg/mL). Cell cultures were maintained in DMEM/F12 media supplemented with 10% FBS and 1% GlutaMax™ Supplement (Available from ThermoFisher Scientific, catalog #35050061). Glucagon stimulated cAMP was quantified using LANCE technology as per manufacturer instructions. On the day of the experiment, spent media was removed and cells were washed with Hank's Buffered Saline solution (HBSS), and cells harvested with non-enzymatic cell dissociation solution, then washed once with HBSS. Cells were re-suspended in stimulation buffer at a concentration of 0.83×10^6 cells/ml and cAMP detection antibody was added. 6 μl/well of this solution was then dispensed in a 384 well plate (cell density 5000 cells/well). Test compound was serially diluted in DMSO and 50 nl were dispensed on top of the cell solution and allowed to incubate for 30 minutes. 6 μl of a 2× glucagon solution (final concentration in assay 100 pM) was then added and the reaction was terminated after 5 minutes with the addition of detection mix. The resulting mixture was incubated, protected from light for 1.5 h. cAMP levels were quantified by TR-FRET in an EnVision instrument against a known standard. IC50's were generated by using a non-linear regression macro driven in Excel and converted to Ki values.
With `CC(C)CC(c1ccc(C(=O)NCCC(=O)O)cc1)n1cc2cc(-c3ccc(C(C)(C)C)cc3)ccc2n1` (centres unmarked) [Compound #34, 3-(4-(1-(5-(4-(tert-butyl)phenyl)-2H-indazol-2-yl)-3-methylbutyl)benzamido)propanoic acid] the Ki was 0.086 µM. For `O=C(O)CCNC(=O)c1ccc(C(CCC(F)(F)F)n2cc3cc(-c4ccc(C(F)(F)F)cc4Cl)ccc3n2)cc1` (centres unmarked) [Compound #16, 3-[[4-[1-[5-[2-Chloro-4-(trifluoromethyl)phenyl]indazol-2-yl]-4,4,4-trifluorobutyl]benzoyl]amino]propanoic acid], the Ki was 0.065 µM. Work on `CC(C)CCC(c1ccc(C(=O)NCCC(=O)O)cc1)n1ncc2cc(-c3ccc(C(C)(C)C)cc3)ccc21` (centres unmarked) [Compound #23, 3-(4-(1-(5-(4-(tert-Butyl)phenyl)-1H-indazol-1-yl)-4-methylpentyl)benzamido)propanoic acid] yielded a Ki of 0.144 µM. `Cc1c(-c2ccc(Cl)cc2Cl)ccc2c1cnn2C(CC(C)C)c1ccc(C(=O)NCCC(=O)O)cc1` (centres unmarked) [Compound #127, 3-(4-(1-(5-(2,4-Dichlorophenyl)-4-methyl-1H-indazol-1-yl)-3-methylbutyl)benzamido)propanoic acid] showed a Ki of 0.31 µM. `CC(C)CC(c1ccc(C(=O)NCCC(=O)O)nc1)n1ncc2cc(-c3cc4ccccc4o3)ccc21` (centres unmarked) [Compound #79, 3-(5-(1-(5-(Benzofuran-2-yl)-1H-indazol-1-yl)-3-methylbutyl)picolinamido)propanoic acid] showed a Ki of 0.5 µM. In the case of `CC(C)CC(c1ccc(C(=O)NCCC(=O)O)cc1)n1cc2cc(-c3cnc4ccccc4c3)ccc2n1` (centres unmarked) [compound 117], the Ki is reported as 1 µM. In the case of `Cc1cc(Cl)ccc1-c1ccc2c(cnn2C(CCC2CCCCC2)c2ccc(C(=O)NCCC(=O)O)nc2)c1` (centres unmarked) [compound 210], the Ki is reported as 0.365 µM. `COc1c(-c2ccc(Cl)cc2C)ccc2nn(C(CC(C)C)c3ccc(C(=O)NCCC(=O)O)cc3)cc12` (centres unmarked) [Compound #64, 3-(4-(1-(5-(4-Chloro-2-methylphenyl)-4-methoxy-2H-indazol-2-yl)-3-methylbutyl)benzamido)propanoic acid] showed a Ki of 0.037 µM. `Cc1cc2c(cnn2C(CC(C)C)c2ccc(C(=O)NCCC(=O)O)cc2)cc1-c1ccc(C(F)(F)F)cc1Cl` (centres unmarked) [Compound #94, 3-[[4-[1-[5-[2-Chloro-4-(trifluoromethyl)phenyl]-6-methyl-indazol-1-yl]-3-methyl-butyl]benzoyl]amino]propanoic acid] showed a Ki of 0.026 µM. With `CC(C)CC(c1ccc(C(=O)NCCC(=O)O)nc1)n1ncc2cc(-c3ccc(C(F)(F)F)cc3)ccc21` (centres unmarked) [compound 74] the Ki was 0.255 µM. `CC(C)(C)CC(c1ccc(C(=O)NCCC(=O)O)cc1)n1cc2cc(-c3ccc(C(F)(F)F)cc3)ccc2n1` (centres unmarked) [compound 61] showed a Ki of 0.052 µM. With `Cc1cc(C(F)(F)F)ccc1-c1ccc2nn(C(CC(C)C)c3ccc(C(=O)NCCC(=O)O)nc3)cc2c1C(F)(F)F` (centres unmarked) [Compound #246, 3-(5-(3-Methyl-1-(5-(2-methyl-4-(trifluoromethyl)phenyl)-4-(trifluoromethyl)-2H-indazol-2-yl)butyl)picolinamido)propanoic acid] the Ki was greater than 5.2 µM. Work on `Cc1cc(Cl)ccc1-c1ccc2c(cnn2C(CC(C)(C)C)c2ccc(C(=O)NCCC(=O)O)cc2)c1` (centres unmarked) [compound 151] yielded a Ki of 0.09 µM. Compound `CC(C)CC(c1ccc(C(=O)NCCC(=O)O)cc1)n1cc2cc(-c3ccc4cnn(C)c4c3)ccc2n1` (centres unmarked) [compound 80] has a Ki of 0.34 µM. `Cc1cc(-c2ccc(C(C)(C)C)cc2)cc2cn(C(CC(C)C)c3ccc(C(=O)NCCC(=O)O)nc3)nc12` (centres unmarked) [compound 108] gave a Ki of 1.34 µM. For `Cc1cc(C(F)(F)F)ccc1-c1cc2cnn(C(CC(C)C)c3ccc(C(=O)NCCC(=O)O)nc3)c2cc1C` (centres unmarked) [Compound #214, 3-[[5-[3-Methyl-1-[6-methyl-5-[2-methyl-4-(trifluoromethyl)phenyl]indazol-1-yl]butyl]pyridine-2-carbonyl]amino]propanoic acid], the Ki was 0.032 µM. For `CC(C)CC(c1ccc(C(=O)NCCC(=O)O)cc1)n1ncc2cc(-c3ccccc3)ccc21` (centres unmarked) [Compound #4], the Ki was 1.1 µM. `O=C(O)CCNC(=O)c1ccc(C(CC2CCCCC2)n2ncc3cc(-c4ccc(C(F)(F)F)cc4)ccc32)cc1` (centres unmarked) [compound 131] showed a Ki of 0.31 µM. Work on `CCCCCCC(c1ccc(C(=O)NCCC(=O)O)cc1)n1cc2cc(-c3ccc(Cl)cc3C)ccc2n1` (centres unmarked) [compound 204] yielded a Ki of 0.021 µM. For `COc1ccc2sc(-c3ccc4c(cnn4C(CC(C)C)c4ccc(C(=O)NCCC(=O)O)cc4)c3)cc2c1` (centres unmarked) [compound 132], the Ki was 0.23 µM. For `COc1c(-c2ccc(C(F)(F)F)cc2Cl)ccc2c1cnn2C(CC(C)C)c1ccc(C(=O)NCCC(=O)O)nc1` (centres unmarked) [Compound #250, 3-(5-(1-(5-(2-Chloro-4-(trifluoromethyl)phenyl)-4-methoxy-1H-indazol-1-yl)-3-methylbutyl)picolinamido)propanoic acid], the Ki was 0.055 µM. With `O=C(O)CCNC(=O)c1ccc(C(c2ccc(C(F)(F)F)cc2)n2ncc3cc(-c4ccc(C(F)(F)F)cc4)ccc32)cc1` (centres unmarked) [Compound #101, 3-(4-((4-(Trifluoromethyl)phenyl)(5-(4-(trifluoromethyl)phenyl)-1H-indazol-1-yl)methyl)benzamido)propanoic acid] the Ki was 0.8 µM. With `Cc1ccc(-c2ccc3c(cnn3C(CC(C)C)c3ccc(C(=O)NCCC(=O)O)cc3)c2C)c(C)c1` (centres unmarked) [Compound #177, 3-(4-(1-(5-(2,4-Dimethylphenyl)-4-methyl-1H-indazol-1-yl)-3-methylbutyl)benzamido)propanoic acid] the Ki was 0.485 µM. Compound `CC(C)CC(c1ccc(C(=O)NCCC(=O)O)nc1)n1cc2cc(-c3ccc(Cl)cc3Cl)ccc2n1` (centres unmarked) [Compound #83, 3-(5-(1-(5-(2,4-Dichlorophenyl)-2H-indazol-2-yl)-3-methylbutyl)picolinamido)propanoic acid] has a Ki of 0.336 µM. Work on `Cc1c(-c2ccc(Cl)cc2Cl)ccc2nn(C(CC(C)C)c3ccc(C(=O)NCCC(=O)O)cc3)cc12` (centres unmarked) [Compound #190, 3-(4-(1-(5-(2,4-Dichlorophenyl)-4-methyl-2H-indazol-2-yl)-3-methylbutyl)benzamido)propanoic acid] yielded a Ki of 0.025 µM. `O=C(O)CCNC(=O)c1ccc(C(c2ccc(C(F)(F)F)cc2)n2cc3cc(-c4ccc(C(F)(F)F)cc4)ccc3n2)cc1` (centres unmarked) [Compound #66, 3-(4-((4-(Trifluoromethyl)phenyl)(5-(4-(trifluoromethyl)phenyl)-2H-indazol-2-yl)methyl)benzamido)propanoic acid] gave a Ki of 0.6 µM. Compound `CCOc1c(-c2ccc(C(F)(F)F)cc2Cl)ccc2nn(C(CC(C)C)c3ccc(C(=O)NCCC(=O)O)nc3)cc12` (centres unmarked) [Compound #205, 3-(5-(1-(5-(2-Chloro-4-(trifluoromethyl)phenyl)-4-ethoxy-2H-indazol-2-yl)-3-methylbutyl)picolinamido)propanoic acid] has a Ki of 0.057 µM. In the case of `CC(C)CC(c1ccc(C(=O)NCCC(=O)O)nc1)n1cc2cc(-c3cc4ccccc4o3)ccc2n1` (centres unmarked) [Compound #260, 3-(5-(1-(5-(Benzofuran-2-yl)-2H-indazol-2-yl)-3-methylbutyl)picolinamido)propanoic acid], the Ki is reported as 0.135 µM. Work on `CCCC(c1ccc(C(=O)NCCC(=O)O)cc1)n1ncc2cc(-c3ccc(C(F)(F)F)cc3)ccc21` (centres unmarked) [compound 60] yielded a Ki of 0.3 µM. Compound `O=C(O)CCNC(=O)c1ccc(C(C2CCCCC2)n2cc3cc(-c4ccc(C(F)(F)F)cc4Cl)ccc3n2)cc1` (centres unmarked) [compound 98] has a Ki of 0.083 µM. `O=C(O)CCNC(=O)c1ccc(C(CCC(F)(F)F)n2ncc3cc(-c4ccc(C(F)(F)F)cc4Cl)ccc32)cc1` (centres unmarked) [Compound #167, 3-[[4-[1-[5-[2-Chloro-4-(trifluoromethyl)phenyl]indazol-1-yl]-4,4,4-trifluorobutyl]benzoyl]amino]propanoic acid] gave a Ki of 0.27 µM. Compound `Cc1cc(Cl)ccc1-c1ccc2c(cnn2C(CC2CCCCC2)c2ccc(C(=O)NCCC(=O)O)cc2)c1` (centres unmarked) [compound 194] has a Ki of 0.21 µM. With `O=C(O)CCNC(=O)c1ccc(C(CCC2CCC2)n2cc3cc(-c4ccc(C(F)(F)F)cc4)ccc3n2)cc1` (centres unmarked) [Compound #215, 3-(4-(3-Cyclobutyl-1-(5-(4-(trifluoromethyl)phenyl)-2H-indazol-2-yl)propyl)benzamido)propanoic acid] the Ki was 0.21 µM. In the case of `CC(C)CCC(c1ccc(C(=O)NCCC(=O)O)cc1)n1cc2cc(-c3ccc(C(C)(C)C)cc3)ccc2n1` (centres unmarked) [Compound #227, 3-(4-(1-(5-(4-(tert-Butyl)phenyl)-2H-indazol-2-yl)-4-methylpentyl)benzamido)propanoic acid], the Ki is reported as 0.33 µM. For `Cc1cc(Cl)ccc1-c1cc2cnn(C(CC(C)C)c3ccc(C(=O)NCCC(=O)O)nc3)c2cc1Cl` (centres unmarked) [Compound #102, 3-[[5-[1-[6-Chloro-5-(4-chloro-2-methyl-phenyl)indazol-1-yl]-3-methyl-butyl]pyridine-2-carbonyl]amino]propanoic acid], the Ki was 0.55 µM. `COc1c(-c2ccc(C(F)(F)F)cc2C)ccc2c1cnn2[C@@H](CC(C)C)c1ccc(C(=O)NCCC(=O)O)cc1` [Compound #192, 3-[[4-[(1S)-1-[4-Methoxy-5-[2-methyl-4-(trifluoromethyl)phenyl]indazol-1-yl]-3-methyl-butyl]benzoyl]amino]propanoic acid] showed a Ki of 0.022 µM. Work on `O=C(O)CCNC(=O)c1ccc(C(CC2CCCCC2)n2cc3cc(-c4ccc(C(F)(F)F)cc4)ccc3n2)cc1` (centres unmarked) [compound 92] yielded a Ki of 0.063 µM. With `Cc1cc(Cl)ccc1-c1ccc2c(cnn2C(CC2CCCCC2)c2ccc(C(=O)NCCC(=O)O)nc2)c1` (centres unmarked) [compound 183] the Ki was 0.35 µM.
